Assays:
[1] = target: Sodium channel protein type 4 subunit alpha (Homo sapiens, UniProt P35499); experiment: Modulation of human Nav1.4 by automated patch clamp electrophysiology assay
[2] = target: Sodium channel protein type 3 subunit alpha (Homo sapiens, UniProt Q9NY46); experiment: Modulation of human Nav1.3 by automated patch clamp electrophysiology assay
[3] = target: Sodium channel protein type 5 subunit alpha (Homo sapiens, UniProt Q14524); experiment: Modulation of human Nav1.5 by automated patch clamp electrophysiology assay
[4] = target: Sodium channel protein type 9 subunit alpha (Homo sapiens, UniProt Q15858); experiment: Modulation of human Nav1.7 by automated patch clamp electrophysiology assay

Chain of Sodium channel protein type 3 subunit alpha (Q9NY46 whole entry): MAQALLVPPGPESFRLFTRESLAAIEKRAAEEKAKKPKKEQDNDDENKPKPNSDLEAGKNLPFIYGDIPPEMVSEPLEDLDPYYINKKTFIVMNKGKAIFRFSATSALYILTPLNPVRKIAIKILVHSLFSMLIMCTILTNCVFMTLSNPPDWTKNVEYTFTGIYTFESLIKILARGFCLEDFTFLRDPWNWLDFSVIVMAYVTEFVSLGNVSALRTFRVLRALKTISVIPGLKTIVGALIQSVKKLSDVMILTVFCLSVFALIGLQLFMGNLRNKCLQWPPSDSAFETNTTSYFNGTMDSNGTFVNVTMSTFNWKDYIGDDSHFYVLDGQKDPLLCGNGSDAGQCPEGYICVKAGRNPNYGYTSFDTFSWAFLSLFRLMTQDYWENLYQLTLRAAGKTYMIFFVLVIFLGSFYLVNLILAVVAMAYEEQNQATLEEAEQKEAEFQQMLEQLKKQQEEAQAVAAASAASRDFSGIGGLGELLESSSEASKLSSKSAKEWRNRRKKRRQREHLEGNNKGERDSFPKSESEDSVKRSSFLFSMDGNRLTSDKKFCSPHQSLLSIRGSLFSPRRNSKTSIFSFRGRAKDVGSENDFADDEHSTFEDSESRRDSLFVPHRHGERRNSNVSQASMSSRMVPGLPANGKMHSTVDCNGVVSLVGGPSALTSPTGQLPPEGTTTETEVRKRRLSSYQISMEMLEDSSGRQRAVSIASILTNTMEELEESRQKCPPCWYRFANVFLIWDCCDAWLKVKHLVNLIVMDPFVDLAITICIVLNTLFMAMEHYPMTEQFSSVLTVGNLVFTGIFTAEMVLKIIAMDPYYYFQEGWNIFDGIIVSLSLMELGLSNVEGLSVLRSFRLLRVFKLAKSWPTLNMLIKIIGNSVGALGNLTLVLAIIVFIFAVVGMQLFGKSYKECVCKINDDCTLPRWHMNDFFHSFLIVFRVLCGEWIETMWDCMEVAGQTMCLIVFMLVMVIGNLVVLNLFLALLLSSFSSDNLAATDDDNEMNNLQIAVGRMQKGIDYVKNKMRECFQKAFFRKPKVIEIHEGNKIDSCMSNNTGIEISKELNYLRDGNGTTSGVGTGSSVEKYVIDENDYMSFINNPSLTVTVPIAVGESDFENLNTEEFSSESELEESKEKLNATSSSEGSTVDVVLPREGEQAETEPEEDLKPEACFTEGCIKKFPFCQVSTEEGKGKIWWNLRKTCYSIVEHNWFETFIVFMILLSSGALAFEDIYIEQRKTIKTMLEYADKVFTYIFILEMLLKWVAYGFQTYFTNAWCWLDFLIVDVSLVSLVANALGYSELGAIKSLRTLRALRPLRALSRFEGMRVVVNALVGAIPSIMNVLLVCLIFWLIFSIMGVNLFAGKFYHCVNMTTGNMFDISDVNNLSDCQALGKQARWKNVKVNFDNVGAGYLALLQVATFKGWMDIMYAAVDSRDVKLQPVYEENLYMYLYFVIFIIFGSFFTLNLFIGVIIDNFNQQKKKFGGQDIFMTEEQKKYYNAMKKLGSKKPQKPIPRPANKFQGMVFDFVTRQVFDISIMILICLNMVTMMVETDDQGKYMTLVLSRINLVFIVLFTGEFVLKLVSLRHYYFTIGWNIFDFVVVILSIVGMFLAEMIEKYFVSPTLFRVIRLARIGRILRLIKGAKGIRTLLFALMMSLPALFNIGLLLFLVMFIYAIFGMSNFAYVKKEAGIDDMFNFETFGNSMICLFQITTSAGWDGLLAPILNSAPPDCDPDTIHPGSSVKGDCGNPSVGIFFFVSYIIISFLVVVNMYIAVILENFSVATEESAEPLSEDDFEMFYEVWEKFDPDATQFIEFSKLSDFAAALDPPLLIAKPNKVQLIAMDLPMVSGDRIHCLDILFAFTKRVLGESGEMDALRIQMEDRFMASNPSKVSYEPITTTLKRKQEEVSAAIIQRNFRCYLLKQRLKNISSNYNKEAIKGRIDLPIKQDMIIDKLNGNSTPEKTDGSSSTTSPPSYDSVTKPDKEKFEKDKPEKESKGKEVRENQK
Chain of Sodium channel protein type 5 subunit alpha (Q14524 whole entry): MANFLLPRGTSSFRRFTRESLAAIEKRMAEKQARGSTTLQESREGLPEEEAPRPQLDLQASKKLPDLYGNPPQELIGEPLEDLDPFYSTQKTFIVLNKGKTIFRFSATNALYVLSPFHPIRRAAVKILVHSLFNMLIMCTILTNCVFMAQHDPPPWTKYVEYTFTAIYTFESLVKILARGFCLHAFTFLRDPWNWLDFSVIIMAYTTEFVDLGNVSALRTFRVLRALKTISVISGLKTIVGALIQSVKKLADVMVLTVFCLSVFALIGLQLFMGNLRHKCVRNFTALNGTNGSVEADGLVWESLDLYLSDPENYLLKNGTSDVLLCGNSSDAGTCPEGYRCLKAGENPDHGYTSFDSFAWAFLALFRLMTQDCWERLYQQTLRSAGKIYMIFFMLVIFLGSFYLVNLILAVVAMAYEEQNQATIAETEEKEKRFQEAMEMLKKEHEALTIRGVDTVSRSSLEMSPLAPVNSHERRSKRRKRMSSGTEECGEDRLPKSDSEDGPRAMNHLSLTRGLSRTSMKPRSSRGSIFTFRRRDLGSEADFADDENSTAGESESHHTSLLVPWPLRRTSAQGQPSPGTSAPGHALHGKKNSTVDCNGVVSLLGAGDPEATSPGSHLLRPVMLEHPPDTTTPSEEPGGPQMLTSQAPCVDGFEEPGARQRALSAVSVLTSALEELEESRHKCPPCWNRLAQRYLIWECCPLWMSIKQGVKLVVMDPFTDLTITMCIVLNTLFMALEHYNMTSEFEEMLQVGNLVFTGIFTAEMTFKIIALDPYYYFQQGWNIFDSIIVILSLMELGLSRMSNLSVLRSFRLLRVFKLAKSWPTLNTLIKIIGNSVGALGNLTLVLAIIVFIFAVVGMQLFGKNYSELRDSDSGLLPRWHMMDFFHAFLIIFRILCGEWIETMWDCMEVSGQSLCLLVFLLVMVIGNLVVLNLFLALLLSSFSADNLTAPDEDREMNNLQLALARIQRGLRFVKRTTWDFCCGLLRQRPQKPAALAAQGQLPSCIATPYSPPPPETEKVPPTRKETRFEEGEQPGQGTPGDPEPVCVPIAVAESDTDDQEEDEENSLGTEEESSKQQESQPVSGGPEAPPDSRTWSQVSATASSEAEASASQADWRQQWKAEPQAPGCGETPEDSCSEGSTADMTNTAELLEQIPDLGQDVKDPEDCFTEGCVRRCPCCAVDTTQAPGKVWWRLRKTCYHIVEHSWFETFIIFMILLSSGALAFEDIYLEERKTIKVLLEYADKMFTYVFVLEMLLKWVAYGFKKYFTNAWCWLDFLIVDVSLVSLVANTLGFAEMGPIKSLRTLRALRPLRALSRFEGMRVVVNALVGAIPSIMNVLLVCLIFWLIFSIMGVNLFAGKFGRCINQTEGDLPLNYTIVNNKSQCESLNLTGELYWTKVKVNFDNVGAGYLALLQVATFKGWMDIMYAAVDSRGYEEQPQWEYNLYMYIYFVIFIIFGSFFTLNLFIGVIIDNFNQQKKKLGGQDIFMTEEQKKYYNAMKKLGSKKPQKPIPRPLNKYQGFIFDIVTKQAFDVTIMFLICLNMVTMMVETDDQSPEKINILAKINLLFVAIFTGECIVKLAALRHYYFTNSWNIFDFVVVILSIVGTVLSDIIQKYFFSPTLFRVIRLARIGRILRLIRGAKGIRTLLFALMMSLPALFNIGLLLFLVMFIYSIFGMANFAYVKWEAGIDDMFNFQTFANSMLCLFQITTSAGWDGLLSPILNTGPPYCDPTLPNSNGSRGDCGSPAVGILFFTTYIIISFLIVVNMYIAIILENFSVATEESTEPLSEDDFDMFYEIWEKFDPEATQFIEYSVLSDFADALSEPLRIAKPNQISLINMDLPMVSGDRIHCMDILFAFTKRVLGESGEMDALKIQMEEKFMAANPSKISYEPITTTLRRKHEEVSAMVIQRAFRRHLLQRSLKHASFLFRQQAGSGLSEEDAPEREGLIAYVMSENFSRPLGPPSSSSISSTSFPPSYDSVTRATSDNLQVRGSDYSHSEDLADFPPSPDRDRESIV

Compound	IC50 [1]	IC50 [2]	IC50 [3]	IC50 [4]
Nc1nc2c(s1)C[C@@H](NC(=O)c1cc3ccccc3[nH]1)CC2	16 µM	> 30 µM	> 30 µM	29 µM
CC(C)(C)OC(=O)N1CCC[C@H]1C(=O)N[C@H]1CCc2nc(N)sc2C1	8 µM	> 30 µM	> 30 µM	> 30 µM
Nc1nc2c(s1)C[C@@H](NC(=O)[C@@H]1CCCN1)CC2	25 µM	> 30 µM	> 30 µM	> 30 µM
Cn1cccc1C(=O)N[C@H]1CCc2nc(N)sc2C1	16 µM	24 µM	> 30 µM	> 30 µM
Nc1nc2c(s1)C[C@@H](NC(=O)c1ccco1)CC2	> 30 µM	27 µM	> 30 µM	> 30 µM
Nc1nc2c(s1)C[C@@H](NCc1ccc[nH]1)CC2	30 µM	25 µM	> 30 µM	21 µM
Nc1nc2c(s1)CC(CNC(=O)c1ccc[nH]1)CC2 (stereo unspecified)	> 30 µM	28 µM	21 µM	20 µM
Nc1nc2c(s1)CC(CNC(=O)c1cc(Br)c(Br)[nH]1)CC2 (stereo unspecified)	> 30 µM	18 µM	> 30 µM	23 µM
Nc1nc2c(s1)CC(CNC(=O)c1cc3ccccc3[nH]1)CC2 (stereo unspecified)	21 µM	16 µM	> 30 µM	23 µM
CC(C)(C)OC(=O)N1CCC[C@H]1C(=O)NCC1CCc2nc(N)sc2C1 (stereo partly specified)	> 30 µM	26 µM	20 µM	> 30 µM
Nc1nc2c(s1)CC(CNC(=O)[C@@H]1CCCN1)CC2 (stereo partly specified)	> 30 µM	> 30 µM	> 30 µM	> 30 µM
Nc1nc2c(s1)C[C@@H](NC(=O)c1ccc[nH]1)CC2	> 30 µM	> 30 µM	> 30 µM	21 µM
Nc1nc2c(s1)C[C@@H](NC(=O)c1cc(Br)c[nH]1)CC2	> 30 µM	26 µM	21 µM	18 µM
Nc1nc2c(s1)C[C@@H](NC(=O)c1cc(Br)c(Br)[nH]1)CC2	15 µM	26 µM	> 30 µM	16 µM

— ChEMBL document CHEMBL3085695, “Novel state-dependent voltage-gated sodium channel modulators, based on marine alkaloids from Agelas sponges” (Eur J Med Chem, 2013)
